In brackets after ≈: the same amount, converted by molar mass.
How the values were obtained:
[1] = Estimated bioavailability of sublingual relative to subcutaneous delivery (blood glucose lowering at 24 h); set-up: species or system db/db mice; details: male, db/db, mouse, in vivo, bioavailability of sublingually administered GLP-1 RA-P relative to subcutaneous administration
Source text: The term “bioavailability of GLP-1 RA-P” as used herein refers to an estimated bioavailability of a sublingually administered GLP-1 RA-P in relative to that achieved by subcutaneous injection. Accordingly, the “bioavailability of GLP-1 RA-P” is expressed as a percentage of bioavailability achieves by subcutaneous injected GLP-1 RA-P. To estimate the bioavailability of sublingual delivery in relative to subcutaneous delivery in db/db mice, the blood glucose-lowering effects of two sublingual doses of varying amounts were compared with one subcutaneous dose of a specific amount at the 24-hour time point (just before the third sublingual dose). […] By comparing the combined effect of the two sublingual doses to the subcutaneous dose, the relative bioavailability is estimated.
Further, blood glucose levels in db/db mice are highly sensitive to changes in GLP-1 RA-P drug concentrations, making glucose measurements a reliable indicator of the drug's availability in the bloodstream. In the experiments described in this study, the db/db mouse model was used to evaluate the efficiency of sublingual drug delivery, estimate bioavailability via sublingual versus subcutaneous administration, and examine the cumulative effects of repeated sublingual dosing.
For these experiments, 30 male db/db mice, aged 6 weeks and weighing 35-40 g, were used. […]

[2] = semaglutide: based on the known highest dosage form for subcutaneous injection; cited from earlier work

Structure (SMILES)	bioavailability at 24 h [1]	solubility in aqueous buffer [2]
CC[C@H](C)[C@H](NC(=O)[C@H](CC(C)C)NC(=O)[C@H](Cc1c[nH]c2ccccc12)NC(=O)[C@H](CCC(N)=O)NC(=O)[C@@H](NC(=O)[C@H](Cc1ccccc1)NC(=O)[C@H](C)NC(=O)[C@H](CCCCNC(=O)COCCOCCNC(=O)COCCOCCNC(=O)CC[C@H](NC(=O)CCCCCCCCCCCCCCCCCCC(=O)O)C(=O)O)NC(=O)[C@H](CCC(N)=O)NC(=O)[C@H](C)NC(=O)[C@@H](NC(=O)[C@H](CCCCN)NC(=O)[C@H](CC(=O)O)NC(=O)[C@H](CC(C)C)NC(=O)C(C)(C)NC(=O)[C@@H](NC(=O)[C@H](CO)NC(=O)[C@H](Cc1ccc(O)cc1)NC(=O)[C@H](CC(=O)O)NC(=O)[C@H](CO)NC(=O)[C@@H](NC(=O)[C@H](Cc1ccccc1)NC(=O)[C@@H](NC(=O)CNC(=O)[C@H](CCC(=O)O)NC(=O)C(C)(C)NC(=O)[C@@H](N)Cc1ccc(O)cc1)[C@@H](C)O)[C@@H](C)O)[C@@H](C)CC)[C@@H](C)CC)C(C)C)C(=O)N[C@@H](C)C(=O)NCC(=O)NCC(=O)N1CCC[C@H]1C(=O)N[C@@H](CO)C(=O)N[C@@H](CO)C(=O)NCC(=O)N[C@@H](C)C(=O)N1CCC[C@H]1C(=O)N1CCC[C@H]1C(=O)N1CCC[C@H]1C(=O)N[C@@H](CO)C(N)=O [tirzepatide]	10%	–
CC[C@H](C)[C@H](NC(=O)[C@H](Cc1ccccc1)NC(=O)[C@H](CCC(=O)O)NC(=O)[C@H](CCCCNC(=O)COCCOCCNC(=O)COCCOCCNC(=O)CC[C@H](NC(=O)CCCCCCCCCCCCCCCCC(=O)O)C(=O)O)NC(=O)[C@H](C)NC(=O)[C@H](C)NC(=O)[C@H](CCC(N)=O)NC(=O)CNC(=O)[C@H](CCC(=O)O)NC(=O)[C@H](CC(C)C)NC(=O)[C@H](Cc1ccc(O)cc1)NC(=O)[C@H](CO)NC(=O)[C@H](CO)NC(=O)[C@@H](NC(=O)[C@H](CC(=O)O)NC(=O)[C@H](CO)NC(=O)[C@@H](NC(=O)[C@H](Cc1ccccc1)NC(=O)[C@@H](NC(=O)CNC(=O)[C@H](CCC(=O)O)NC(=O)C(C)(C)NC(=O)[C@@H](N)Cc1cnc[nH]1)[C@@H](C)O)[C@@H](C)O)C(C)C)C(=O)N[C@@H](C)C(=O)N[C@@H](Cc1c[nH]c2ccccc12)C(=O)N[C@@H](CC(C)C)C(=O)N[C@H](C(=O)N[C@@H](CCCNC(=N)N)C(=O)NCC(=O)N[C@@H](CCCNC(=N)N)C(=O)NCC(=O)O)C(C)C [semaglutide]	–	3200 µg/mL (≈ 778 µM)

Reference: patent US20250241994A1, “PHARMACEUTICAL FORMULATION OF GLUCAGON-LIKE PEPTIDE -1 RECEPTOR AGONIST PEPTIDE FOR SUBLINGUAL DELIVERY” (Immunwork Inc., priority 2024, published 2025)
